Source: US10160986B2, “Chemoenzymatic synthesis of heparin and heparan sulfate analogs” (The Regents of the University of California, priority 2011, dated 2018)
Read-outs that look alike come from different tables or passages of the source.

What was measured:
[1] = system: T1, MBP-KfiA-His6 (Escherichia coli); assay: GlcNAcT donor substrate specificity of MBP-KfiA-His6 (Example 12); type: biochemical, E. coli; conditions: acceptor GlcAβ2AA 1 mM, UDP-sugar 1 mM, MnCl2 10 mM, KfiA 2.8 μg μl^−1, 24 h, 37° C.
T1 construct: made in house; host or cells: E. coli BL21(DE3) co-expressing chaperone plasmid pGro7
Description: (§1) PmHS2, KfiA, and related fusion proteins were expressed, purified, and characterized as described in Example 1. Reactions with UDP-sugars were carried out in duplicate at 37° C. in MES (100 mM, pH 6.5) containing UDP-GlcNAc or one of its derivatives (1 mM), GlcAβ2AA (1 mM), MnCl2 (10 mM) and KfiA (2.8 μg μl^−1) or PmHS2 (1.1 μg μl^−1) for 24 h. The reaction mixtures were stopped by adding ice-cold 10% (v/v) acetonitrile to make 100-fold dilutions and the mixtures were analyzed by HPLC as described for the pH profile.
(§2) Substrate specificity of the GlcNAcT activities of MBP-KfiA-his6 and his6-PmHS2. […] The reactions were easily analyzed by high performance liquid chromatography (HPLC) equipped with a fluorescence detector using an excitation wavelength of 315 nm and an emission wavelength of 400 nm to determine the ratio of the fluorescent disaccharide product formed and the fluorescent GlcAβ2AA acceptor.

His6-PmHS2 = assay: GlcNAcT donor substrate specificity of His6-PmHS2 (Example 12); type: biochemical, Pasteurella multocida; conditions: acceptor GlcAβ2AA 1 mM, UDP-sugar 1 mM, MnCl2 10 mM, PmHS2 1.1 μg μl^−1, 24 h, 37° C.
Description: as §1, §2

PmHS2 = assay: Small-scale PmHS2 donor substrate test by TLC; type: biochemical, Pasteurella multocida; conditions: GlcAβ2AAMe 10 mM, donor 15 mM, MgCl2 10 mM, PmHS2 0.5 mg/mL, pH 7.5, 37° C., 12 hr
Description: Prior to applying the one-pot three-enzyme system shown in FIG. 16 to the preparative-scale synthesis of the disaccharides, UDP-GlcNAc and derivatives F17-1-F17-12 were tested as donor substrates for PmHS2 in small-scale reaction containing Tris-HCl buffer (100 mM, pH 7.5), GlcAβ2AAMe (10 mM), UDP-GlcNAc or a derivative (15 mM), MgCl2 (10 mM), and PmHS2 (0.5 mg/mL). The reactions were carried out at 37° C. for 12 hr and analyzed by thin layer chromatography (TLC).

SpGalK = target: T2, SpGalK (Streptococcus pneumoniae serotype 4, UniProt Q97NZ6); assay: Kinase reaction monitored by CE (ATP to ADP), SpGalK; type: biochemical, Streptococcus pneumoniae TIGR4; conditions: monosaccharide 15 mM, ATP 18 mM, 37° C.
T2 construct: made in house
Description: Capillary electrophoresis (CE) and thin-layer chromatograph (TLC) assays for kinase reactions. […] These conditions were similar to those used for preparative-scale synthesis. After 1 hr, 4 hr, and 24 hr, an aliquot of 8 μL was withdrawn from each reaction mixture, boiled in a water bath for 5 min and stored at −20° C. until being analyzed by capillary electrophoresis (CE) and TLC. For TLC analysis, 0.5 μL of each sample was directly spotted on TLC plates, developed using suitable developing solvents, and stained with anisaldehyde sugar stain. For CE analysis, 1.5 μL of each sample was diluted into 30 μL and subjected to CE analysis as described above for pH profile studies.

NahK_ATCC15697 = NahK_ATCC15697 (Bifidobacterium longum, UniProt B7GN78); assay: Substrate specificity CE assay, NahK_ATCC15697; type: biochemical, Bifidobacterium infantis; conditions: substrate 1 mM
Description: (§3) Substrates specificity assays. GlcNAc, GalNAc, and their derivatives (1 mM) were used as substrates in the presence of ATP (1 mM) and MgCl2 (5 mM) in a Tris-HCl buffer (pH 8.0, 200 mM) to analyze the substrate specificity of NahKs. Two concentrations (0.75 μM or 15 μM) of each NahK were used and the reactions were allowed to proceed for 10 min (for 0.75 μM NahK) or 30 min (for 15 μM NahK) at 37° C. […] All other conditions were the same as for GlcNAc, GalNAc, and their derivatives.
(§4) Capillary electrophoresis (CE) assays. Based on the detection of ADP and ATP in the reaction mixture by a UV detector, a capillary electrophoresis-based method was developed to directly measure the formation of ADP and N-acetylhexosamine-1-phosphate from ATP and N-acetylhexosamine for characterizing the activities of NahKs.

NahK_ATCC55813 = NahK_ATCC55813 (Bifidobacterium longum subsp. longum, UniProt E8MF12, D7V/R348H); type: biochemical; parameters: made in house; host or cells: E. coli BL21(DE3); conditions: substrate 1 mM
Description: as §3, §4

[2] = 0.75 μM enzyme, 10 min at 37° C., ATP 1 mM
[3] = 15 μM enzyme, 30 min at 37° C., ATP 1 mM (Table 2)

SMILES	donor substrate for MBP-KfiA-His6 [1]	donor substrate for the α1-4GlcNAcT activity of His6-PmHS2 (His6-PmHS2)	donor substrate for PmHS2 (PmHS2)	other results
O=c1ccn(C2OC(COP(=O)(O)OP(=O)(O)OC3OC(CO)C(O)C(O)C3F)C(O)C2O)c(=O)[nH]1 [Compound 33-23, Uridine 5′-diphospho-2-fluoro-2-deoxy-α-D-mannopyranoside]	not tolerable substrate	not tolerable substrate		
CC(=O)N[C@H]1[C@@H](OP(=O)(O)OP(=O)(O)OC[C@H]2O[C@@H](n3ccc(=O)[nH]c3=O)[C@H](O)[C@@H]2O)O[C@H](CNC(=O)CO)[C@@H](O)[C@@H]1O [Compound F17-9, Uridine 5′-diphospho-2-acetamido-6-hydroxyacetamido-2,6-dideoxy-α-D-glucopyranoside]	not for MBPKfiA-His6	tolerable donor substrates for His6-PmHS2	tolerable donor substrates	
O=C(Cc1ccccc1)NC1C(OP(=O)(O)OP(=O)(O)OCC2OC(n3ccc(=O)[nH]c3=O)C(O)C2O)OC(CO)C(O)C1O [Compound 33-5, Uridine 5′-diphospho-2-phenylacetamido-2-deoxy-α-D-glucopyranoside]	not for MBPKfiA-His6	tolerable donor substrates for His6-PmHS2		
O=C(Cc1ccc(-c2ccccc2)cc1)N[C@H]1[C@@H](OP(=O)(O)OP(=O)(O)OC[C@H]2O[C@@H](n3ccc(=O)[nH]c3=O)[C@H](O)[C@@H]2O)O[C@H](CO)[C@@H](O)[C@@H]1O [Compound 33-6, Uridine 5′-diphospho-2-(1,1′-biphenyl-4-yl)acetamido-2-deoxy-α-D-glucopyranoside]	not suitable donor substrates	not suitable donor substrates		
CC(=O)N[C@@H]1[C@@H](OP(=O)(O)OP(=O)(O)OC[C@H]2O[C@@H](n3ccc(=O)[nH]c3=O)[C@H](O)[C@@H]2O)O[C@H](CO)[C@@H](O)[C@@H]1O [Compound 33-20, Uridine 5′-diphospho-2-acetamido-2-deoxy-α-D-mannopyranoside]	not tolerable substrate	not tolerable substrate		
[N-]=[N+]=N[C@@H]1[C@@H](OP(=O)(O)OP(=O)(O)OC[C@H]2O[C@@H](n3ccc(=O)[nH]c3=O)[C@H](O)[C@@H]2O)O[C@H](CO)[C@@H](O)[C@@H]1O [Compound 33-21, Uridine 5′-diphospho-2-azido-2-deoxy-α-D-mannopyranoside]	not tolerable substrate	not tolerable substrate		
[N-]=[N+]=N[C@H]1[C@@H](OP(=O)(O)OP(=O)(O)OC[C@H]2O[C@@H](n3ccc(=O)[nH]c3=O)[C@H](O)[C@@H]2O)O[C@H](CO)[C@@H](O)[C@@H]1O [Compound F17-6, Uridine 5′-diphospho-2-azido-2-deoxy-α-D-glucopyranoside]	not acceptable donor substrates	not acceptable donor substrates	did not serve as donor substrates	
CC(=O)N[C@H]1[C@@H](OP(=O)(O)OP(=O)(O)OC[C@H]2O[C@@H](n3ccc(=O)[nH]c3=O)[C@H](O)[C@@H]2O)O[C@H](CO)[C@H](O)[C@@H]1O [Compound 33-18, uridine 5′-diphospho-2-acetamido-2-deoxy-α-D-glacopyranoside]	not for MBPKfiA-His6	tolerable donor substrates for His6-PmHS2		
NC1C(OP(=O)(O)OP(=O)(O)OCC2OC(n3ccc(=O)[nH]c3=O)C(O)C2O)OC(CO)C(O)C1O [Compound F17-5, Uridine 5′-diphospho-2-amino-2-deoxy-α-D-glucopyranoside]	not acceptable donor substrates	not acceptable donor substrates	did not serve as donor substrates	
CC(=O)NC1C(OP(=O)(O)OP(=O)(O)OCC2OC(n3ccc(=O)[nH]c3=O)C(O)C2O)OC(CN)C(O)C1O [Compound F17-10, Uridine 5′-diphospho-2-acetamido-6-amino-2,6-dideoxy-α-D-glucopyranoside]	not for MBPKfiA-His6	tolerable donor substrates for His6-PmHS2	did not serve as donor substrates	
CC(=O)NC1C(OP(=O)(O)OP(=O)(O)OCC2OC(n3ccc(=O)[nH]c3=O)C(O)C2O)OC(CNC(=O)Cc2ccccc2)C(O)C1O [Compound 33-14, Uridine 5′-diphospho-2-acetamido-6-phenylacetamido-2,6-dideoxy-α-D-glucopyranoside]	not suitable donor substrates	not suitable donor substrates		
CC(=O)N[C@H]1[C@@H](OP(=O)(O)OP(=O)(O)OC[C@H]2O[C@@H](n3ccc(=O)[nH]c3=O)[C@H](O)[C@@H]2O)O[C@H](COS(=O)(=O)O)[C@@H](O)[C@@H]1O [Compound F17-12, Uridine 5′-diphospho-2-acetamido-2-deoxy-6-O-sulfo-α-D-glucopyranoside]		block the activities of both	did not serve as donor substrates	
CC(=O)NC1C(OP(=O)(O)OP(=O)(O)OCC2OC(n3ccc(=O)[nH]c3=O)C(O)C2O)OC(CNC(=O)Cc2ccc(-c3ccccc3)cc2)C(O)C1O [Compound 33-15, Uridine 5′-diphospho-2-acetamido-6-(1,1′-biphenyl-4-yl)-acetamido-2,6-dideoxy-α-D-glucopyranoside]	not suitable donor substrates	not suitable donor substrates		
[N-]=[N+]=NC1C(O)OC(CO)[C@H](O)C1O (stereo partly drawn) [GalN3]				ATP Conversion (SpGalK; 1 hr): 45.7%; ATP Conversion (SpGalK; 4 hr): 79.0%; ATP Conversion (SpGalK; 24 hr): 81.2%; Percentage Conversion (NahK_ATCC15697; [2]): 0%; Percentage Conversion (NahK_ATCC15697; [3]): 7.6 ± 0.1%; Percentage Conversion (NahK_ATCC55813; [2]): 0%; Percentage Conversion (NahK_ATCC55813; [3]): 4.3 ± 0.1%
CC(=O)NC1C(OP(=O)(O)OP(=O)(O)OCC2OC(n3ccc(=O)[nH]c3=O)C(O)C2O)OC(CNC(=O)CN=[N+]=[N-])C(O)C1O [Compound F17-11, Uridine 5′-diphospho-2-acetamido-6-azidoacetamido-2,6-dideoxy-α-D-glucopyranoside]	not for MBPKfiA-His6	tolerable donor substrates for His6-PmHS2	did not serve as donor substrates	
O=c1ccn([C@@H]2O[C@H](COP(=O)(O)OP(=O)(O)O[C@H]3O[C@H](CO)[C@@H](O)[C@H](O)[C@H]3NS(=O)(=O)O)[C@@H](O)[C@H]2O)c(=O)[nH]1 [Compound F17-7, Uridine 5′-diphospho-2-sulfoamino-2-deoxy-α-D-glucopyranoside]		block the activities of both	did not serve as donor substrates	
